Patent publication US6277859A, “Morphinan derivative and its pharmaceutical applications” (priority 1992, dated 2001)
Where a name gives a salt, the structure may show the parent alone.

Legend:
Wistar rats = test: Evaluation of diuretic action; format: in vivo, rat (male Wistar); conditions: sc, rat, s.c., urine output for 5 h after 20 ml/kg saline oral; for ED500: read-out: ED500, diuretic action (dose giving urine output of 500, non-dosed group = 100); for ED200: read-out: ED200, diuretic action (dose giving urine output of 200, non-dosed group = 100)
Procedure: Evaluation of Diuretic Action
7-8 week old male Wistar rats were used in this test after prohibiting from drinking water for 1 hour before testing. After discharging any urine accumulated in the bladder by gently stimulating the lower abdomens of the animals, the drug was administered subcutaneously. After 30 minutes, the animals were then forcibly given 20 ml/kg of physiological saline orally. The animals were then placed in metabolic cages immediately after administration of the drug (2 animals/cage) and urine output for 5 hours after loading with physiological saline was measured. Drug efficacy was expressed in the form of those doses resulting in urine outputs of 200 and 500, respectively, when the urine output of a non-dosed group was taken to be 100. Those doses were expressed as the ED200 and ED500 values, respectively.

δ receptor = molecular target: T1, δ receptor (Mus musculus, UniProt P32300); test: Ke with NTI in isolated mouse vas deference preparation; format: cell-based, mouse (male ddy); conditions: for Ke NTI: NTI (δ)
T1 construct: The isolated vas deference was filled with Krebes-Henseleit solution; from tissue; host or cells: isolated vas deferens of male ddy mouse
T1 sequence (P32300 whole entry): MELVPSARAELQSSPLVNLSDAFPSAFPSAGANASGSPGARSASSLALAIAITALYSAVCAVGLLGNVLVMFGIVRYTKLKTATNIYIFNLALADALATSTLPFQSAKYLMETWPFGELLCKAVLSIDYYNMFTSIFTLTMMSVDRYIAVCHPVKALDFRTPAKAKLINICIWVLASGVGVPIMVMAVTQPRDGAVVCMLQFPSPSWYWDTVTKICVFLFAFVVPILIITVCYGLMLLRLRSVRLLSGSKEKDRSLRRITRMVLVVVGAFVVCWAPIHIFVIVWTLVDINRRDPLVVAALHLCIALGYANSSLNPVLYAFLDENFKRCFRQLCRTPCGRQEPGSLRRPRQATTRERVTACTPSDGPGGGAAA
Procedure: (§1) A male ddy mouse was used in this test. The isolated vas deference was filled with Krebes-Henseleit solution (NaCl 118 mM; KCl 4.7 mM; CaCl2 2.5 mM; KH2 PO4 1.1 mM; NaHCO3 25 mM; and glucose 10 mM) warmed to 37° C. and suspended in a Magnus tube ventilated with 5% carbon dioxide and 95% oxygen. Electrical stimulus was performed at 0.1 Hz for 5.0 ms by means of ring-shaped platinum electrodes located above and below. Tissue contractions were recorded on a polygraph using an isometric transducer.
(§2) Then after adequately washing with nutrient solution and the contraction reaction stabilized, naloxone, a μ […], NTI, a δ […], or norBNI, a κ […], were added and the test compound was again cumulatively added after roughly 20 minutes. The Ke value was calculated using the following calculation formula from the difference in the efficacies of both agonists.
(§3) Ke=[Conc. of added agonist]/(IC50 ratio-1)
(§4) IC50 ratio IC50 in the presence of agonist/IC50 in the absence of agonist

μ receptor = molecular target: T2, μ receptor (Mus musculus, UniProt P42866); test: Ke with naloxone in isolated mouse vas deference preparation; format: cell-based, mouse (male ddy)
T2 construct: The isolated vas deference was filled with Krebes-Henseleit solution; from tissue; host or cells: isolated vas deferens of male ddy mouse
T2 sequence (P42866 whole entry): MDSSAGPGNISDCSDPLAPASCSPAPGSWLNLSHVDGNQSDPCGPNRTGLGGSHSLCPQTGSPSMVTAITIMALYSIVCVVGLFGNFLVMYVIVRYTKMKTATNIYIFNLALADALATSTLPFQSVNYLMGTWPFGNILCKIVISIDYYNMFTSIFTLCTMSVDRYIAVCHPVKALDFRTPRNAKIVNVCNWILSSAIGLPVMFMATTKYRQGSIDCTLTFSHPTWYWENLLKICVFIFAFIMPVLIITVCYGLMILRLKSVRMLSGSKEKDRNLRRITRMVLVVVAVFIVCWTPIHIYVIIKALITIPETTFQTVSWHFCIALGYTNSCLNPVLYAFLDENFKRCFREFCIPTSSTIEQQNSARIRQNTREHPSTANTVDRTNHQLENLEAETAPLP
Procedure: as §1, §2, §3, §4

κ receptor = molecular target: T3, κ receptor (Mus musculus, UniProt P33534); test: Ke with norBNI in isolated mouse vas deference preparation; format: cell-based, mouse (male ddy); conditions: for Ke norBNI: norBNI (κ)
T3 construct: The isolated vas deference was filled with Krebes-Henseleit solution; from tissue; host or cells: isolated vas deferens of male ddy mouse
T3 sequence (P33534 whole entry): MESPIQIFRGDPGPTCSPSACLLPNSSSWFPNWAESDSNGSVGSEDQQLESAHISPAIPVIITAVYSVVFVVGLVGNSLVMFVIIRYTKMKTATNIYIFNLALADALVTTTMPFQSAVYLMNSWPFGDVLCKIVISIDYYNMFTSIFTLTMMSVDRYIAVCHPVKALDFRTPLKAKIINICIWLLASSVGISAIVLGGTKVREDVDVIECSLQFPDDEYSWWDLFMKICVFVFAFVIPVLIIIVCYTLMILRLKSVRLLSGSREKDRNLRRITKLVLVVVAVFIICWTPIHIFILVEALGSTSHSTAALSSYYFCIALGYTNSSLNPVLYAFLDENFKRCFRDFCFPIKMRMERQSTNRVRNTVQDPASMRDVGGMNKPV
Procedure: as §1, §2, §3, §4

SMILES | ED500 (Wistar rats) [µg/kg] | ED200 (Wistar rats) [µg/kg] | Ke NTI (δ receptor) [nM] | Ke Naloxone (μ receptor) [nM] | selective agonist for κ receptors (in words) (κ receptor) | Ke norBNI (κ receptor) [nM] | selective agonist for δ receptors (in words) (δ receptor)
CN(C(=O)CCc1ccccc1)[C@H]1CC[C@@]2(O)[C@H]3Cc4ccc(O)c5c4[C@@]2(CCN3CC2CC2)[C@H]1O5 [Compound 22, 17-Cyclopropylmethyl-4,5α-epoxy-3,14β-dihydroxy-6α-(N-methyl-3-phenylpropionamido)morphinan.tartrate] | 17 | 0.95 | 545 | 800 | selective agonists for κ receptors | 5.53 | –
CN(C(=O)/C=C/c1cccc([N+](=O)[O-])c1)[C@H]1CC[C@@]2(O)[C@H]3Cc4ccc(O)c5c4[C@@]2(CCN3CC2CC2)[C@H]1O5 [Compound 97, 17-cyclopropylmethyl-3,14β-dihydroxy-4,5α-epoxy-6α-(N-methyl-3-nitrocinnamamido)morphinanphosphate] | – | 4.5 | 2.92 | 163 | – | 13.9 | selective agonists for δ receptors
CN(C(=O)/C=C/c1ccccc1)[C@H]1CC[C@@]2(O)[C@H]3Cc4ccc(O)c5c4[C@@]2(CCN3CC2CC2)[C@H]1O5 [Compound 24, 17-cyclopropylmethyl-3,14β-dihydroxy-4,5α-epoxy-6α-(N-methylcinnamamido)morphinan.hydrochloride] | 6.3 | 0.69 | 0.426 | 16.5 | – | 4.90 | selective agonists for δ receptors
CN(C(=O)C#Cc1ccccc1)[C@H]1CC[C@@]2(O)[C@H]3Cc4ccc(O)c5c4[C@@]2(CCN3CC2CC2)[C@H]1O5 [Compound 84, 17-cyclopropylmethyl-3,14β-dihydroxy-4,5α-epoxy-6α-(N-methyl-3-phenylpropiolamido)morphinan.hydrochloride] | – | 2.8 | 0.309 | 35.4 | – | 5.69 | selective agonists for δ receptors
CN(C(=O)C#Cc1ccccc1)[C@@H]1CC[C@@]2(O)[C@H]3Cc4ccc(O)c5c4[C@@]2(CCN3CC2CC2)[C@H]1O5 [Compound 101, 17-cyclopropylmethyl-3,14β-dihydroxy-4,5α-epoxy-6β-(N-methyl-3-phenylpropiolamido)morphinan.hydrochloride] | – | 8.9 | 31.6 | 25.4 | selective agonists for κ receptors | 0.0425 | –
CN(C(=O)COc1ccccc1)[C@H]1CC[C@@]2(O)[C@H]3Cc4ccc(O)c5c4[C@@]2(CCN3CC2CC2)[C@H]1O5 [Compound 38, 17-cyclopropylmethyl-3,14β-dihydroxy-4,5α-epoxy-6α-(N-methylphenoxyacetamido) morphinan.hydrochloride] | – | 3.8 | 16.6 | 411 | selective agonists for κ receptors | 4.65 | –
CN(C(=O)/C=C/c1ccoc1)[C@H]1CC[C@@]2(O)[C@H]3Cc4ccc(O)c5c4[C@@]2(CCN3CC2CC2)[C@H]1O5 [Compound 89, 17-cyclopropylmethyl-3,14β-dihydroxy-4,5α-epoxy-6α-[N-methyl-trans-3-(3-furyl)acrylamido]morphinane.tartrate] | – | 1.2 | 15.6 | 18.3 | selective agonists for κ receptors | 0.85 | –
CN(C(=O)OCc1ccc([N+](=O)[O-])cc1)[C@H]1CC[C@@]2(O)[C@H]3Cc4ccc(O)c5c4[C@@]2(CCN3CC2CC2)[C@H]1O5 [Compound 43, 17-cyclopropylmethyl-3,14β-dihydroxy-4,5α-epoxy-6α-(N-methyl-4-nitrobenzyloxycarbamido)morphinan.hydrochloride] | 4.4 | 0.54 | 22.5 | 409 | selective agonists for κ receptors | 5.31 | –
